Key:
[1] = system: (+)-MK-801-induced memory deficits; assay: Novel object recognition (NOR) test in (+)-MK-801 treated rats; format: in vivo, male Wistar rats; details: rat; for Total Exploratory Time in T2 Session: vehicle 49.67 ± 4.63
Description: The rats were injected with the respective compounds for 21 consecutive days at the minimum active doses selected previously, based on acute treatment and assessment in the NOR test. The protocol for the NOR test was adapted from the original work and the test was performed according to the previously described protocol, 24 h after the last injection of the investigated compound. The discrimination index (DI) was calculated according to the formula:(7) DI=(EB−EA)/(EA+EB) where EB is the exploration time of novel object during the T2 session and EA is the exploration time of […].
PQA-AZ4 and PQA-AZ-6 were administered for 60 and 30 min, respectively, before the T1 phase (the familiarization phase). MK-801 was used to attenuate learning and was administered at a dose of 0.1 mg/kg (i.p.) 30 min before the familiarization phase (T1). The total exploration time in T2 was used to determine the influence of the treatment on the exploratory activity of the animals.

[2] = system: rats; assay: Forced swim test (FST); format: in vivo, male Wistar rats; details: rat
Description: The rats were injected for 21 consecutive days at a dose of 1 mg/kg, similar to the dose used in acute treatment, as per data presented in Supplementary Materials (Table S1). The FST was conducted according to the method of Porsolt. On the first day of the experiment, the animals were gently placed individually for 15 min in Plexiglas cylinders (40 cm high, 18 cm in diameter) containing 15 cm of water maintained at 23–25 °C. On removal from water, the rats were placed for 30 min in a Plexiglas box under a 60 W bulb to dry. On the following day (24 h later), the rats were replaced in the cylinder and the total duration of immobility was recorded during the whole 5 min test period. Immobility was assigned when no additional activity was observed other than that necessary to keep the rat’s head above the water. Fresh water was used for each animal.
FST after acute administration of the investigated compounds
Rats were injected 60 min before the test at a dose of 1 mg/kg. FST was carried out according to the method of Porsolt, and the same procedure was used for chronic treatment.
Table S1. Effect of acute treatment of PQA-AZ4, PQA-AZ6, and PQ-10 on the immobility time in the […]
Compound (mg/kg) Immobility time (s)
Compounds were injected i.p. 60 min before the test. Values represent the means ± SEM of immobility in the FST during a 5 min test session. The data were analyzed using one -way ANOVA, followed by Bonferroni‘s post hoc test; NS = nonsignificant; N=7-8.

[3] = system: Bdnf gene; assay: Bdnf gene expression in brain structures (RT-qPCR, ex vivo); design: species or system rats; details: rat, 1 mg/kg/day i.p., 21 days
Description: Animals in all treatment groups were sacrificed by rapid decapitation immediately after the behavioral tests, when the brains and blood samples were collected. For quantitative reverse transcription-polymerase chain reaction (RT-qPCR), the brains of rats were rapidly removed, and the hippocampus and prefrontal cortex were dissected on an ice-cold glass plate. The tissues were frozen in dry ice and stored at −80 °C until required.
The total RNA was extracted from tissues using an RNA Isolation kit (Thermo Fisher Scientific, Rockford, IL, USA), and its concentration was normalized to 20 ng/μL. Reverse transcription was performed with a High-Capacity Reverse Transcription Kit (Life Technologies, Grand Island, NY, USA). A qPCR fast 96-well reaction plate was used for the process with TaqMan Gene Expression assay (Life Technologies) for brain-derived neurotrophic factor Bdnf (Rn02531967_s1) on an Applied Biosystems® 7500 Fast Real-Time PCR Instrument (Applied Biosystems, Foster City, CA, USA), according to the manufacturer’s protocol. Glyceraldehyde-3-phosphate dehydrogenase, Gapdh (Rn01775763_g1), was selected as endogenous control, based on the pilot experiment. Relative normalized expression was calculated using the ΔΔCq method.

[4] = system: rats; assay: 18-hour spontaneous activity monitoring; format: in vivo, male Wistar rats; details: rat, after 20-day administration, 1 mg/kg/day i.p., 18-h monitoring
Description: Spontaneous activity was measured on the 20th day of the treatment with a special, innovative, radio-frequency identification system (RFID-system), TraffiCage (TSE-Systems, Bad Homburg, Germany). The test was conducted according to the method described previously. The animals had RFID transmitters implanted subcutaneously, which tracked the time they spent in different areas of the cage.

[5] = Body weight measurement; format: in vivo, rats; details: rat, 20-day administration, 1 mg/kg/day i.p.
Description: Body weight was measured every second day, immediately before the administration of drugs.

[6] = Serum glucose, triglyceride and cholesterol concentrations; format: in vivo, rats; details: rat, 1 mg/kg/day i.p., 21 days
Description: The blood samples were collected immediately after decapitation and then centrifuged at 600× g […], 4 °C, to separate the plasma. The blood was used to determine metabolic parameters such as glucose, cholesterol, and triglyceride levels, together with liver enzymatic activity.
Standard enzymatic spectrophotometric tests (Biomaxima S.A., Lublin, Poland) were used to determine glucose, cholesterol, and triglyceride levels in the serum. In the presence of an appropriate enzyme, the substrate was converted to a colored compound. Absorbance was measured at a wavelength of 500 nm.

[7] = Ferric-reducing antioxidant power (FRAP) of serum; format: in vivo, rats; details: rat, 1 mg/kg/day i.p., 21 days
Description: The assay was performed according to Benzie and Strain [46] with some modifications. The FRAP working solution was prepared before the start of the analysis, namely, 0.3 mol acetate buffer (pH 3.6), 0.01 mol TPTZ (2,4,6-tripyridyl-s-triazine; Sigma-Aldrich) in 0.04 mol HCl (POCh, Gliwice, Poland), and 0.02 M FeCl3×6H2O in water (iron (III) chloride hexahydrate; Chempur, Piekary Śląskie, Poland) were mixed in a volumetric ratio of 10:1:1 and protected from light.
Next, 20 µL of the plasma sample tested, brain homogenate, or FeSO4×7H2O solution was mixed with 180 µL of the FRAP working solution. The mixtures obtained were incubated at 37 °C for 30 min and their absorbance was measured at 593 nm. FeSO4×7H2O (100–1000 µM/L) was used for a calibration curve. Deionized water with FRAP solution was used as a blank.

[8] = chronic 1 mg/kg/day i.p., 21 days

| SMILES | Total Exploratory Time in T2 Session ([1]; (+)-MK-801 0.1 mg/kg i.p. + vehicle) [s] | Immobility time ([2]; acute 1 mg/kg i.p., 60 min before test, 5 min session, vehicle 255.9 ± 8.6) [s] | antidepressant-like activity in FST [2, 8] | decrease of immobility vs. control group in FST [2, 8] | Bdnf expression upregulation vs control, hippocampus ([3]; hippocampus (Hipp)) | Bdnf expression upregulation vs control, prefrontal cortex ([3]; prefrontal cortex (PFX)) | Total Exploratory Time in T2 Session ([1]; 0.3 mg/kg/day i.p. 21 days + (+)-MK-801 0.1 mg/kg) | effect on (+)-MK-801-induced recognition memory deficits (discrimination index) ([1]; 0.3 mg/kg/day i.p., 21 days, (+)-MK-801 0.1 mg/kg i.p.) | spontaneous activity vs vehicle [4] | weight gain vs vehicle [5] | serum glucose concentration vs vehicle [6] | serum triglycerides concentration vs vehicle [6] | total cholesterol concentration vs vehicle [6] | total antioxidant activity of serum (Fe2+ formed, FRAP) vs control [7] |
| --- | --- | --- | --- | --- | --- | --- | --- | --- | --- | --- | --- | --- | --- | --- |
| C[C@]12N[C@H](Cc3ccccc31)c1ccccc12 [(+)-MK-801, Dizocilpine, reference compound] | 44.00 ± 4.05 |  |  |  |  |  |  |  |  |  |  |  |  |  |
| COc1cc2ncnc(N3CC[C@@H](Oc4cnc5ccccc5n4)C3)c2cc1OC [PQ-10, 6,7-dimethoxy-4-[(3R)-3-(2-quinoxalinyloxy)-1-pyrrolidinyl]-quinazoline, reference compound] |  | 249.1 ± 10.4 | showed antidepressant-like properties | about 9% | about 17 fold | about 34 fold | 47.13 ± 5.69 F(2,18) = 0.3006; NS s | restored recognition memory deficits | No significant effect | did not result in a change | did not significantly change | did not significantly change | slight but statistically significant (p < 0.05) increase | comparable |

Reference: publication PMC9569954, “The Antidepressant-like Activity, Effects on Recognition Memory Deficits, Bioavailability, and Safety after Chronic Administration of New Dual-Acting Small Compounds Targeting Neuropsychiatric Symptoms in Dementia” (International Journal of Molecular Sciences, 2022)
